Measured values published in the NIST ThermoML archive (doi:10.1021/je900550v).

Assay: refractive index (Na D-line) (dimensionless)
Conditions: 101.33 kPa, Liquid, Standard Abbe refractometry

CCCC(=O)[O-].C[NH2+]CCO [N-methyl-2-hydroxyethylammonium butanoate]
Conditions	refractive index
288.15 K	1.4579
293.15 K	1.4564
298.15 K	1.4549
303.15 K	1.4534
308.15 K	1.452
313.15 K	1.4504
318.15 K	1.4488
323.15 K	1.4471

C[NH2+]CCO.O=C[O-] [2-hydroxy-N-methylethanaminium formate]
Conditions	refractive index
288.35 K	1.4485
293.15 K	1.447
298.35 K	1.4458
303.15 K	1.4446
308.23 K	1.4429
313.1 K	1.4418
318.15 K	1.4406
322.85 K	1.4396

CCC(=O)[O-].C[NH2+]CCO [2-hydroxy-N-methylethanaminium propionate]
Conditions	refractive index
288.15 K	1.4561
293.2 K	1.4548
298.2 K	1.4534
303.15 K	1.452
308.15 K	1.4507
313.18 K	1.4492
318.15 K	1.4478
323.15 K	1.4464

CC(=O)[O-].C[NH2+]CCO [N-methyl-2-hydroxyethylammonium acetate]
Conditions	refractive index
288.25 K	1.4518
293.23 K	1.4506
298.15 K	1.4494
303.13 K	1.4483
308.13 K	1.447
313.05 K	1.4457
318.13 K	1.4445
323.1 K	1.4433

CCCCC(=O)[O-].C[NH2+]CCO [2-hydroxy-N-methylethanaminium pentanoate]
Conditions	refractive index
288.15 K	1.4568
293.12 K	1.4554
298.19 K	1.4538
303.15 K	1.4524
308.18 K	1.4508
313.25 K	1.4492
318.15 K	1.4474
323.18 K	1.4461

CC(C)C(=O)[O-].C[NH2+]CCO [2-hydroxy-N-methylethanaminium isobutyrate]
Conditions	refractive index
288.11 K	1.4539
293.15 K	1.4525
298.05 K	1.4511
303.05 K	1.4496
308.05 K	1.4481
313.05 K	1.4463
318.08 K	1.4448
323.15 K	1.4433
